Measurements as given in PubChem BioAssay AID1963970 (Molecular Pharmacology Branch, DTP, NCI, 2024).
pIC50: −log10 of the molar value.

Tested on: 931267-113-T-J1-PDC multicell spheroid viability
Test: Anticancer human tumor 931267-113-T-J1-PDC patient-derived colon adenocarcinoma cell line growth inhibition [PI3K]
Details: for pIC50: curve of first compound; for viability, T/C: stronger effect = lower value
In short: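 Complex 3D spheroids (cancer cells + endothelial HUVEC + mesenchymal stem cells); drug pairs of targeted agent x inavolisib/alpelisib/duvelisib/copanlisib; half-log series from ~Cmax, max 10 microM if Cmax unknown; endpoint viability.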

[1] = second compound 0.00316 µM, first compound 0.0316 µM
[2] = second compound 0.00316 µM, first compound 0.1 µM
[3] = second compound 0.00316 µM, first compound 0.316 µM
[4] = second compound 0.00316 µM, first compound 1 µM
[5] = second compound 0.00316 µM, first compound 3.16 µM
[6] = second compound 0.00316 µM, first compound 10 µM
[7] = second compound 0.01 µM, first compound 0.0316 µM
[8] = second compound 0.01 µM, first compound 0.1 µM
[9] = second compound 0.01 µM, first compound 0.316 µM
[10] = second compound 0.01 µM, first compound 1 µM
[11] = second compound 0.01 µM, first compound 3.16 µM
[12] = second compound 0.01 µM, first compound 10 µM
[13] = second compound 0.0316 µM, first compound 0.0316 µM
[14] = second compound 0.0316 µM, first compound 0.1 µM
[15] = second compound 0.0316 µM, first compound 0.316 µM
[16] = second compound 0.0316 µM, first compound 1 µM
[17] = second compound 0.0316 µM, first compound 3.16 µM
[18] = second compound 0.0316 µM, first compound 10 µM
[19] = second compound 0.1 µM, first compound 0.0316 µM
[20] = second compound 0.1 µM, first compound 0.1 µM
[21] = second compound 0.1 µM, first compound 0.316 µM
[22] = second compound 0.1 µM, first compound 1 µM
[23] = second compound 0.1 µM, first compound 3.16 µM
[24] = second compound 0.1 µM, first compound 10 µM
[25] = second compound 0.316 µM, first compound 0.0316 µM
[26] = second compound 0.316 µM, first compound 0.1 µM
[27] = second compound 0.316 µM, first compound 0.316 µM
[28] = second compound 0.316 µM, first compound 1 µM
[29] = second compound 0.316 µM, first compound 3.16 µM
[30] = second compound 0.316 µM, first compound 10 µM
[31] = second compound 1 µM, first compound 0.0316 µM
[32] = second compound 1 µM, first compound 0.1 µM
[33] = second compound 1 µM, first compound 0.316 µM
[34] = second compound 1 µM, first compound 1 µM
[35] = second compound 1 µM, first compound 3.16 µM
[36] = second compound 1 µM, first compound 10 µM
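Also: viability read 7 days after compound addition.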

`C#Cc1c(F)ccc2cc(O)cc(-c3ncc4c(N5CC6CCC(C5)N6)nc(OCC56CCCN5CC(F)C6)nc4c3F)c12` (stereo not drawn) + COc1c(OCCCN2CCOCC2)ccc2c3n(c(=NC(=O)c4cnc(N)nc4)nc12)CCN3 gave a pIC50 (second compound 0.00316 µM) of 6.42, a pIC50 (second compound 0.01 µM) of 6.62 and a pIC50 (second compound 0.0316 µM) of 7.03. The pIC50 (second compound 0.1 µM) was 7.42, the pIC50 (second compound 0.316 µM) was greater than 7.50 and the pIC50 (second compound 1 µM) was greater than 7.50. It also gave a viability, T/C [1] of 78.6%, a viability, T/C [2] of 67.9% and a viability, T/C [3] of 51.9%. For the same compound, the viability, T/C [4] was 38%, the viability, T/C [5] was 24.8% and the viability, T/C [6] was 17.2%. For the same compound, the viability, T/C [7] was 84.7%, the viability, T/C [8] was 70.5% and the viability, T/C [9] was 39.2%. It also gave a viability, T/C [10] of 32.4%, a viability, T/C [11] of 21.2% and a viability, T/C [12] of 15.9%. It also gave a viability, T/C [13] of 62.3%, a viability, T/C [14] of 52.1% and a viability, T/C [15] of 30.2%. The viability, T/C [16] was 23.8%, the viability, T/C [17] was 21.4% and the viability, T/C [18] was 11%. It also gave a viability, T/C [19] of 54%, a viability, T/C [20] of 34.4% and a viability, T/C [21] of 25.5%. It also gave a viability, T/C [22] of 19%, a viability, T/C [23] of 13.3% and a viability, T/C [24] of 6.82%. For the same compound, the viability, T/C [25] was 36.4%, the viability, T/C [26] was 26.7% and the viability, T/C [27] was 17.1%. It also gave a viability, T/C [28] of 10.5%, a viability, T/C [29] of 7.67% and a viability, T/C [30] of 4.44%. It also gave a viability, T/C [31] of 24.3%, a viability, T/C [32] of 20.9% and a viability, T/C [33] of 11.7%. The viability, T/C [34] was 8.76%, the viability, T/C [35] was 5.6% and the viability, T/C [36] was 3.48%.
In the case of `C=CC(=O)N1CCN(c2nc(=O)n(-c3c(C)ccnc3C(C)C)c3nc(-c4c(O)cccc4F)c(F)cc23)C(C)C1` (stereo not drawn) + COc1c(OCCCN2CCOCC2)ccc2c3n(c(=NC(=O)c4cnc(N)nc4)nc12)CCN3, the pIC50 (second compound 0.00316 µM) was less than 5.00, the pIC50 (second compound 0.01 µM) was less than 5.00 and the pIC50 (second compound 0.0316 µM) was less than 5.00. It also gave a pIC50 (second compound 0.1 µM) of less than 5.00, a pIC50 (second compound 0.316 µM) greater than 7.50 and a pIC50 (second compound 1 µM) greater than 7.50. For the same compound, the viability, T/C [1] was 107%, the viability, T/C [2] was 107% and the viability, T/C [3] was 101%. For the same compound, the viability, T/C [4] was 95.3%, the viability, T/C [5] was 103% and the viability, T/C [6] was 101%. It also gave a viability, T/C [7] of 102%, a viability, T/C [8] of 106% and a viability, T/C [9] of 91.4%. The viability, T/C [10] was 99.4%, the viability, T/C [11] was 103% and the viability, T/C [12] was 81.1%. For the same compound, the viability, T/C [13] was 95.5%, the viability, T/C [14] was 98.3% and the viability, T/C [15] was 90.4%. For the same compound, the viability, T/C [16] was 85.1%, the viability, T/C [17] was 86.5% and the viability, T/C [18] was 79.1%. For the same compound, the viability, T/C [19] was 71.2%, the viability, T/C [20] was 68.6% and the viability, T/C [21] was 70.5%. It also gave a viability, T/C [22] of 73.7%, a viability, T/C [23] of 71.4% and a viability, T/C [24] of 62.5%. The viability, T/C [25] was 49.5%, the viability, T/C [26] was 44.1% and the viability, T/C [27] was 47.6%. For the same compound, the viability, T/C [28] was 51.5%, the viability, T/C [29] was 52.3% and the viability, T/C [30] was 46.6%. It also gave a viability, T/C [31] of 35.1%, a viability, T/C [32] of 29.1% and a viability, T/C [33] of 35.1%. For the same compound, the viability, T/C [34] was 35.3%, the viability, T/C [35] was 36.5% and the viability, T/C [36] was 32.5%.
Work on `CC(Cn1ccc(-c2ccc(C#N)c(Cl)c2)n1)NC(=O)c1cc(C(C)O)[nH]n1` (stereo not drawn) + COc1c(OCCCN2CCOCC2)ccc2c3n(c(=NC(=O)c4cnc(N)nc4)nc12)CCN3 yielded a pIC50 (second compound 0.00316 µM) of less than 5.00, a pIC50 (second compound 0.01 µM) of less than 5.00 and a pIC50 (second compound 0.0316 µM) of less than 5.00. It also gave a pIC50 (second compound 0.1 µM) of less than 5.00, a pIC50 (second compound 0.316 µM) greater than 7.50 and a pIC50 (second compound 1 µM) greater than 7.50. For the same compound, the viability, T/C [1] was 95.4%, the viability, T/C [2] was 96.7% and the viability, T/C [3] was 104%. For the same compound, the viability, T/C [4] was 99.4%, the viability, T/C [5] was 99.8% and the viability, T/C [6] was 104%. For the same compound, the viability, T/C [7] was 89.7%, the viability, T/C [8] was 102% and the viability, T/C [9] was 97.8%. For the same compound, the viability, T/C [10] was 100%, the viability, T/C [11] was 92.5% and the viability, T/C [12] was 85.9%. The viability, T/C [13] was 91.8%, the viability, T/C [14] was 96.4% and the viability, T/C [15] was 78.6%. The viability, T/C [16] was 82.5%, the viability, T/C [17] was 78.4% and the viability, T/C [18] was 70.5%. It also gave a viability, T/C [19] of 68.8%, a viability, T/C [20] of 72.5% and a viability, T/C [21] of 64.9%. For the same compound, the viability, T/C [22] was 65.4%, the viability, T/C [23] was 65.3% and the viability, T/C [24] was 63.1%. The viability, T/C [25] was 47.5%, the viability, T/C [26] was 44.1% and the viability, T/C [27] was 45.3%. For the same compound, the viability, T/C [28] was 42.4%, the viability, T/C [29] was 47.7% and the viability, T/C [30] was 37.9%. It also gave a viability, T/C [31] of 32.5%, a viability, T/C [32] of 34.4% and a viability, T/C [33] of 30.9%. The viability, T/C [34] was 32.5%, the viability, T/C [35] was 34.5% and the viability, T/C [36] was 29.5%.
`Cn1nccc1Nc1nccc(-c2ccn(C(CO)c3ccc(Cl)c(F)c3)c(=O)c2)n1` (stereo not drawn) + COc1c(OCCCN2CCOCC2)ccc2c3n(c(=NC(=O)c4cnc(N)nc4)nc12)CCN3 showed a pIC50 (second compound 0.00316 µM) of 5.42, a pIC50 (second compound 0.01 µM) of 5.56 and a pIC50 (second compound 0.0316 µM) of 5.91. For the same compound, the pIC50 (second compound 0.1 µM) was 6.38, the pIC50 (second compound 0.316 µM) was greater than 7.50 and the pIC50 (second compound 1 µM) was greater than 7.50. It also gave a viability, T/C [1] of 94.7%, a viability, T/C [2] of 82.3% and a viability, T/C [3] of 83.2%. For the same compound, the viability, T/C [4] was 77.4%, the viability, T/C [5] was 52.2% and the viability, T/C [6] was 32.1%. It also gave a viability, T/C [7] of 97.6%, a viability, T/C [8] of 98% and a viability, T/C [9] of 79.2%. The viability, T/C [10] was 67.5%, the viability, T/C [11] was 48.5% and the viability, T/C [12] was 22.4%. The viability, T/C [13] was 79.7%, the viability, T/C [14] was 77% and the viability, T/C [15] was 68%. The viability, T/C [16] was 55.6%, the viability, T/C [17] was 30.6% and the viability, T/C [18] was 16.1%. For the same compound, the viability, T/C [19] was 70%, the viability, T/C [20] was 67.4% and the viability, T/C [21] was 52.4%. It also gave a viability, T/C [22] of 37.4%, a viability, T/C [23] of 21.9% and a viability, T/C [24] of 10.3%. The viability, T/C [25] was 42.7%, the viability, T/C [26] was 40.2% and the viability, T/C [27] was 35%. It also gave a viability, T/C [28] of 23.7%, a viability, T/C [29] of 13.8% and a viability, T/C [30] of 6.64%. For the same compound, the viability, T/C [31] was 32.7%, the viability, T/C [32] was 29.6% and the viability, T/C [33] was 27.3%. The viability, T/C [34] was 18.4%, the viability, T/C [35] was 9.42% and the viability, T/C [36] was 5.13%.
